Eight compounds from patent US5017723A, “Substituted ethylamines, their preparation process, their use as medicine and their synthesising agents” (Jouveinal S.A., priority 1990, dated 1991) can be followed below.

Like-named read-outs stand apart in the source and are kept apart here.

In test [1] the test system is opiated mu receptor. The class given is binding, guinea pig. To be noted: opiated receptors, compared with morphine. As for the experimental part: (§1) The analysis is carried out in accordance with the technique described by F. Roman et al. in J. Pharm. Pharmcol. 1987, 39, p. 404-407 which consists of analysing the displacement of specific radioactive ligands of the opiated mu, delta and kappa sub receptors by the action of the test products on the membranous receptors of a guinea pig.

Test [2] addresses opiated mu receptor (Cavia porcellus, UniProt A0ACM8Q262). The class given is binding, guinea pig. The note with it: inhibition of 50% of radioligand bonds; read-out: CI50 affinity mu rec. The procedure: as §1
Test [3] relates to convulsion induced by picrotoxine in mice. Put plainly: Protection against picrotoxine-induced convulsion (suppression of the tonic extension phase). The class given is in vivo, male Swiss mice. The note with it: Mus musculus; for responders at 50 mg/kg: 0.5 h, read-out: i.p.: % prot. (percentage of protected animals), 50 mg/kg i.p., picrotoxine 24 mg/kg i.p. 30 min later; for responders at 50 mg/kg / responders at 100 mg/kg: * p<0.05, ** p<0.01, *** p<0.001; for responders at 100 mg/kg: 1 h, read-out: p.o.: % prot. (percentage of protected animals), 100 mg/kg p.o., picrotoxine 24 mg/kg i.p. 60 min later. The source says: The psychotropic properties of the compounds have been determined by the protection of the induced convulsion by picrotoxine for mice, which is achieved by the method derived from that of Krall et al., "Epilepsia", 1978, 19, p. 409-428.
The administration of picrotoxine caused a convulsive crisis in the animal characterised by a myoclonic extension syndrome followed by the extension of the limbs causing the animal to die. Certain substances, particularly those active on the complex GABA/benzodiazepines/Cl-ionophore makes it possible to protect the animals from this convulsive crisis.
In practice the study is carried out on batches of 10 male "Swiss" mice weighing approximately 20 g, which are administered with the product to be studied in aqueous solution either by intraperitoneal route (i.p.) at the rate of 50 mg/kg and in a volume of 0.2 ml of solution per animal, or by oral route (p.o) in a volume of 2.0 ml of solution per animal.
An injection of a solution of picrotoxine at the rate of 24 mg/kg in a volume of 0.2 ml per animal is then administered by interperitoneal route, either 30 minutes after administering the product by interperitoneal route or 60 minutes after administering the product by oral route. The dose of the product injected causing a clonic crisis, which results in untreated animals dying. The suppression of the extension tonic phase in the animals treated under the conditions of the test is observed. The results are expressed:
either in percentages of protected animals of this phase to the reaction of 50 mg/kg of the compound of the study administered by i.p. route or 100 mg/kg by p.o route,
or in DE50 for each of these routes, which is the efficient dosage of the test compound expressed in mg/kg protecting 50% of the animals of this extension phase. The significant value of the results being generally indicated in the following manner:
* Significant result at p<0.05
** Significant result at p<0.01
*** Significant highly significant at p<0.001.

For another test, the target named is T1, opiated delta receptor (Cavia porcellus, UniProt A0A286XTF2).
T1 construct: membranous receptors of a guinea pig; from tissue
T1 sequence (A0A286XTF2 1-366): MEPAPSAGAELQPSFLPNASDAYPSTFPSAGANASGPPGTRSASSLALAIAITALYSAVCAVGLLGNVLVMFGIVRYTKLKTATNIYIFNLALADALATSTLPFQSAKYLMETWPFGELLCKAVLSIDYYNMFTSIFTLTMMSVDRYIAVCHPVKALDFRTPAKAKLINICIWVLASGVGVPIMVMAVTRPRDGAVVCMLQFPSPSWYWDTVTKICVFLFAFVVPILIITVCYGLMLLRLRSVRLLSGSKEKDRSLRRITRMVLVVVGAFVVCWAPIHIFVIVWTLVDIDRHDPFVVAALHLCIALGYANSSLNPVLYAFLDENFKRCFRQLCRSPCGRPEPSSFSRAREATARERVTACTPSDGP
Put plainly: Displacement of specific radioactive ligands, opiated delta receptor. The class given is binding, guinea pig. The note with it: inhibition of 50% of radioligand bonds; read-out: CI50 affinity delta rec. As for the experimental part: as §1

Another test deals with T2, opiated kappa receptor (Cavia porcellus, UniProt P41144).
T2 construct: membranous receptors of a guinea pig; from tissue
T2 sequence (P41144 whole entry): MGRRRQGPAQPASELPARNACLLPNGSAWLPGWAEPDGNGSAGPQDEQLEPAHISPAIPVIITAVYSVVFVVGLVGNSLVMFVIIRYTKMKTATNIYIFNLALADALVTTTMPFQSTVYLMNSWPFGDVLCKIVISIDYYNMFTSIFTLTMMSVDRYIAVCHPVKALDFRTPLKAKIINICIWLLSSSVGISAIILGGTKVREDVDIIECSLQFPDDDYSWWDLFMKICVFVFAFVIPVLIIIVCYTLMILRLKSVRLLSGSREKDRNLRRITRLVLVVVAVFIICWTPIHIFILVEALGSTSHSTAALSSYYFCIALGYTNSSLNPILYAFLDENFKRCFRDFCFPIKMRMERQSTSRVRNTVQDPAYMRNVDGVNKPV
Put plainly: Displacement of specific radioactive ligands, opiated kappa receptor. The class given is binding, guinea pig. To be noted: inhibition of 50% of radioligand bonds; read-out: CI50 affinity kappa rec. As for the experimental part:
as §1

The next test has as its system bladder of the rat. As to the kind of experiment: Transvesical cystomanometry on wide awake rat (urological activity). The class given is in vivo, female rat. To be noted: for activity on the urinary tract compared to the reference compounds (in words): compared to Dicyclomine and Baclofen; for change in vivo at 1 mg/kg / change in vivo at 5 mg/kg: Rattus norvegicus, iv; for change in vivo at 1 mg/kg: 1,0 mg/kg i.v.; for change in vivo at 5 mg/kg: 5,0 mg/kg i.v. The procedure:
Studies by a similar method of operation, the compounds of the invention (I.A) which show a mu and kappa affinity also have an activity on certain functional parameters of the bladder of the rat which justifies their interest in the treatment of dysfunctions in the urinary tract.
The study carried out consists of transvesical cystomanometry on a wide awake rat. The following was measured during the storage and emission phases of urine under continuous intervesical perfusion of sterile physiological serum:
the "threshold pressure", which is the intervesical pressure immediately preceding the contraction phase of the detrusor
the volume of each urinary emission.
The technique used in the female rat consisted of preparing the animals 48 hours before the actual experiment by effecting the implantation of two catheters in the apex of the bladder and one catheter in the left-hand jugular vein under anaesthetic, with the external end of these catheters being protected and held by a sticking plaster corset.
The animals were placed in suitable cages at the time of the test, which were equipped so as to collect and measure the urine. For each animal one vesical catheter was connected to a pressure sensor, the other to a perfusor which supplied 0.2 ml/min. of sterile physiological serum continuously.
The intravesical pressure was measured continuously during the perfusion and it was possible to observe:
a filling phase of the bladder during which the pressure increased progressively,
a sudden rising phase of this pressure during the contraction of the detrusor: the "threshold" pressure which is the pressure observed just before the pressure of the contraction phase. This threshold pressure was raised in the same way as the urinary volume at each urination.
The study consisted of observing the changes in these parameters by the action of the products (IA) which were administered in solution by intravenous route by means of the catheter placed in the left jugular vein.
Dicyclomine and Baclofen which have been considered for the treatment of hyperactive bladders (Drugs of Today, Vol. 24, no. 5, 1988, p. 337-348) were also used in this test in the form of comparison products.

[4] abbreviates: read-out: % variation pressure threshold.

opiated mu receptor (Cavia porcellus, UniProt A0ACM8Q262), sequence (A0ACM8Q262 1-400): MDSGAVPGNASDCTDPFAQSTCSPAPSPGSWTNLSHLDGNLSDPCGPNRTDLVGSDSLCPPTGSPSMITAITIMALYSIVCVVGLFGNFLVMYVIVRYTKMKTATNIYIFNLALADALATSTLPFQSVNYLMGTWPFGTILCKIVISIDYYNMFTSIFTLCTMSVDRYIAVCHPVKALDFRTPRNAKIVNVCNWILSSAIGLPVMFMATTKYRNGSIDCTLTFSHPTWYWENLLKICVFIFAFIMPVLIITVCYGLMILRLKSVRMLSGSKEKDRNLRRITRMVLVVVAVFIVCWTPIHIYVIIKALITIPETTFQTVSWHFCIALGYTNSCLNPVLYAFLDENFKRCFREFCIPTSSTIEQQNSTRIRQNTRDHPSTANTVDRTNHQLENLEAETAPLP

With `CCC(CC=Cc1ccc(Cl)c(Cl)c1)(c1ccc(C)cc1)N(C)C` (stereo not drawn) [Example 44, a-(3',4'-dichloro) cinnamyl-N,N-dimethyl-a-ethyl-p.methylbenzylamine], in the test on opiated mu receptor [1], the “affinity with the receptors compared with morphine (in words)” value was “same order of intensity as the reference products”. In addition, the IC50 on opiated mu receptor [2] came to 0.004 µM; at opiated delta receptor, 0.223 µM; at opiated kappa receptor it was 0.11 µM. For the same compound, the ED50 in test [3] (ip, read-out: i.p.: DE50) came to 21.4 mg/kg; in test [3] (po, read-out: p.o.: DE50) it was 23.9 mg/kg. In the test with bladder of the rat, the “activity on the urinary tract compared to the reference compounds (in words)” value is “important activity”.

As to `CCC(CC=Cc1ccc(Cl)c(Cl)c1)(c1ccc(Cl)cc1)N(C)C` (stereo not drawn) [Example 43, a-(3',4' dichloro) cinnamyl-N,N-dimethyl-a-ethyl-p.chlorobenzylamine], the “affinity with the receptors compared with morphine (in words)” value with opiated mu receptor [1] is recorded as “same order of intensity as the reference products”. Further, the IC50 came to 0.016 µM on opiated mu receptor [2], 0.434 µM at opiated delta receptor and 0.197 µM at opiated kappa receptor. Further, the values for the change in vivo at 1 mg/kg in the test with bladder of the rat (setting [4]) and with bladder of the rat (read-out: % variation volume) were 109% and 91%, respectively. The “activity on the urinary tract compared to the reference compounds (in words)” value with bladder of the rat was “important activity”.

Consider `CCC(CC=Cc1ccccc1)(c1ccc(OC)cc1)N(C)C` (stereo not drawn) [Example 35, a-cinnamyl-N,N-dimethyl-a-ethyl-p.methoxybenzylamine], for which the IC50 at opiated mu receptor [2] is 0.06 µM; at opiated delta receptor, 1.28 µM; on opiated kappa receptor, 0.29 µM. For the same compound, the responders at 50 mg/kg in test [3] (ip) came to 90%. Moreover, the ED50 in test [3] (po, read-out: p.o.: DE50) turned out to be 40.3 mg/kg. Moreover, the change in vivo at 1 mg/kg in the test on bladder of the rat (setting [4]) came out at 200%; in the test on bladder of the rat (read-out: % variation volume), 39%. Moreover, the “activity on the urinary tract compared to the reference compounds (in words)” value in the test on bladder of the rat is “important activity”.

Consider `CCC(CC=Cc1ccc(Cl)c(Cl)c1)(NC)c1ccc(OC)cc1` (stereo not drawn) [Example 25, a-(3',4'-dichloro)cinnamyl-a-ethyl-N-methyl-p.methoxybenzylamine], for which the IC50 on opiated mu receptor [2] stood at 0.056 µM; on opiated delta receptor, 1.59 µM; on opiated kappa receptor, 0.875 µM. Also, in test [3] (po), the responders at 100 mg/kg came out at 50%. For the same compound, the change in vivo at 5 mg/kg in the test on bladder of the rat (setting [4]) came to 85%; with bladder of the rat (read-out: % variation volume), 67%.

Regarding `CCC(CC=Cc1ccccc1)(NC)c1ccc(Cl)cc1` (stereo not drawn) [Example 19, a-cinnamyl-a-ethyl-N-methyl-p.chlorobenzylamine], the IC50 at opiated mu receptor [2] was 0.2 µM; at opiated delta receptor, 3.49 µM; on opiated kappa receptor, 0.264 µM. The responders at 50 mg/kg in test [3] (ip) was found to be 70%. The change in vivo at 5 mg/kg in the test on bladder of the rat (setting [4]) came out at 354%; in the test with bladder of the rat (read-out: % variation volume), 54%.

Regarding `CCC(CC=Cc1ccc(Cl)c(Cl)c1)(c1ccc(OC)cc1)N(C)C` (stereo not drawn) [Example 46, a-(3',4'-dichloro)cinnamyl-N,N-dimethyl-a-ethyl-p.metoxybenzylamine], in the test on opiated mu receptor [1], the “affinity with the receptors compared with morphine (in words)” value is listed as “same order of intensity as the reference products”. The figures for the IC50 at opiated mu receptor [2], on opiated delta receptor and at opiated kappa receptor were 0.012 µM, 0.26 µM and 0.235 µM, respectively. Also, the ED50 in test [3] (ip, read-out: i.p.: DE50) worked out at 29.8 mg/kg; in test [3] (po, read-out: p.o.: DE50) it was 35.4 mg/kg. In addition, the change in vivo at 1 mg/kg was determined as 111% in the test with bladder of the rat (setting [4]) and 44% with bladder of the rat (read-out: % variation volume). In addition, the “activity on the urinary tract compared to the reference compounds (in words)” value in the test on bladder of the rat is listed as “important activity”.

Consider `CNC(CC=Cc1ccc(Cl)c(Cl)c1)(c1ccccc1)C(C)C` (stereo not drawn) [Example 23, a-(3',4'-dichloro)cinnamyl-a-isopropyl-N-methyl-benzylamine], for which the IC50 at opiated mu receptor [2] was 0.08 µM; on opiated delta receptor it was 1.38 µM; on opiated kappa receptor, 0.34 µM. For the same compound, the responders at 50 mg/kg in test [3] (ip) stood at 60%. Moreover, the responders at 100 mg/kg in test [3] (po) turned out to be 100%. For the same compound, the change in vivo at 5 mg/kg was found to be 196% in the test with bladder of the rat (setting [4]) and 35% with bladder of the rat (read-out: % variation volume).

On to `CCC(CC=Cc1ccc(Cl)c(Cl)c1)(c1ccccc1)N(C)C` (stereo not drawn) [Example 36, a-(3',4'-dichloro)cinnamyl-N,N-dimethyl-a-ethyl-benzylamine], for which the values for the IC50 on opiated mu receptor [2], at opiated delta receptor and on opiated kappa receptor were 0.09 µM, 0.68 µM and 0.22 µM, respectively. Also, the responders at 100 mg/kg in test [3] (po) came out at 100%. Further, the change in vivo at 1 mg/kg in the test with bladder of the rat (setting [4]) came to 125%; in the test with bladder of the rat (read-out: % variation volume), 36%. Also, the “activity on the urinary tract compared to the reference compounds (in words)” value in the test with bladder of the rat was “important activity”.
